Row | glass transition temperature [°C] | Structure (SMILES)
1 | 160.00 | *C1C(=O)N(c2cc(Br)c(O[Si](CC)(CC)CC)c(Br)c2)C(=O)C1* (repeat unit)
2 | 264.00 | *Oc1ccc(NC(=O)c2cccc(C(=O)Nc3ccc(*)cc3)c2)cc1 (repeat unit)
3 | 85.00 | *C#Cc1cccc(C#C[SiH](*)c2ccccc2)c1 (repeat unit)
4 | 274.00 | *Oc1ccc(NC(=C(C#N)C#N)c2ccc(C(Nc3ccc(*)cc3)=C(C#N)C#N)cc2)cc1 (repeat unit)
5 | 110.00 | *CC(*)(C)C(=O)Oc1ccc(C(=O)O)cc1 (repeat unit)
6 | 97.00 | *CC(O)COC(=O)c1cccc(C(=O)OCC(O)COc2ccc(C(C)(C)c3ccc(O*)cc3)cc2)c1 (repeat unit)
7 | 230.00 | *c1ccc(Oc2ccc(-c3ccc(Oc4ccc(N5C(=O)c6ccc(Oc7ccc8cc(Oc9ccc%10c(c9)C(=O)N(*)C%10=O)ccc8c7)cc6C5=O)cc4)cc3)cc2)cc1 (repeat unit)
8 | 363.00 | *C1CCC(N2C(=O)c3ccc(S(=O)(=O)c4ccc5c(c4)C(=O)N(*)C5=O)cc3C2=O)CC1 (repeat unit)
9 | 178.00 | *C(=O)NCCN(CCNC(=O)c1cccc(N2C(=O)c3ccc(*)cc3C2=O)c1)c1ccc(/C=C/c2ccc([N+](=O)[O-])cc2)cc1 (repeat unit)
10 | 280.00 | *c1ccc(Oc2ccc(-c3cnc4ccc(-c5ccc6nc(*)cnc6c5)cc4n3)cc2)cc1 (repeat unit)
11 | 211.00 | *C(=O)Nc1ccc(Cc2ccc(NC(=O)c3ccc4c(c3)C(=O)N(c3ccc(NC(=O)Nc5ccc(N6C(=O)c7ccc(*)cc7C6=O)cc5)cc3)C4=O)cc2)cc1 (repeat unit)
12 | 331.00 | *C(=O)Nc1cccc(C(=O)Nc2cccc(NC(=O)c3ccc4[nH]c(-c5cccc(-c6nc7cc(*)ccc7[nH]6)c5)nc4c3)c2)c1 (repeat unit)
13 | 256.50 | *c1ccc(Oc2ccc(S(=O)(=O)c3ccc(Oc4ccc(N5C(=O)C6CCC(C7CCC8C(=O)N(*)C(=O)C8C7)CC6C5=O)cc4)cc3)cc2)cc1 (repeat unit)
14 | 195.80 | *Oc1cc(Oc2cccc(NC(=O)c3cc(Oc4ccc(C(=O)O)c(C(=O)Nc5cccc(*)c5)c4)ccc3C(=O)O)c2)ccc1C#N (repeat unit)
15 | 305.00 | *c1ccc(C(c2ccccc2)c2ccc(N3C(=O)c4ccc(S(=O)(=O)c5ccc6c(c5)C(=O)N(*)C6=O)cc4C3=O)cc2)cc1 (repeat unit)
16 | 150.00 | *Nc1ccccc1CCc1ccc(NC(=O)NCCCCCCNC(*)=O)cc1 (repeat unit)
17 | 219.00 | *CCCCCCCCCCN1C(=O)C2C3C=CC(C4C(=O)N(*)C(=O)C34)C2C1=O (repeat unit)
18 | 285.00 | *c1ccc(Oc2ccc(NC(=O)c3cc(C(=O)Nc4ccc(Oc5ccc(-c6nnc(*)o6)cc5)cc4)cc(N4C(=O)c5ccccc5C4=O)c3)cc2)cc1 (repeat unit)
19 | 293.00 | *C(=O)Nc1ccc(Oc2ccc(C3(c4ccc(Oc5ccc(NC(=O)c6ccc7c(c6)C(=O)N(c6ccc(Oc8ccc(Oc9ccc(N%10C(=O)c%11ccc(*)cc%11C%10=O)cc9)c(C)c8)cc6)C7=O)cc5)cc4)NC(=O)c4ccccc43)cc2)cc1 (repeat unit)

Row | glass transition temperature [°C] | Structure (SMILES)
20 | 165.00 | *CCOC(=O)Nc1ccc(C)c(NC(=O)OCCOc2cc([N+](=O)[O-])ccc2/N=N/c2cn(*)c3ccc(-c4ccccc4)cc23)c1 (repeat unit)
21 | 161.00 | *Oc1ccc(/C(=N/c2ccc(/N=C(\c3ccccc3)c3ccc(Oc4ccc(C(C)(C)c5ccc(*)cc5)cc4)cc3)cc2)c2ccccc2)cc1 (repeat unit)
22 | 92.00 | *CCCCCCCCCCCCNC(=O)c1ccc(C(=O)N*)c(Sc2ccccc2)c1 (repeat unit)
23 | 135.00 | *Cc1cccc(CNC(=O)/C=C(\C)C(=O)N*)c1 (repeat unit)
24 | 59.60 | *CCN(CCCCCOc1ccc(/N=N/c2ccccc2)cc1)CCOC(=O)Nc1ccc(Cc2ccc(NC(=O)O*)cc2)cc1 (repeat unit)
25 | 60.50 | *Oc1ccc(Cc2ccc(OC(=O)CCCCC(*)=O)cc2)cc1 (repeat unit)
26 | 111.00 | *CCOCCOCCOc1cccc(NC(=O)c2cccc(C(=O)Nc3cccc(O*)c3)c2)c1 (repeat unit)
27 | 64.00 | *CC(*)c1cc(C(=O)OCCCCCC)ccc1-c1ccc(OCCCCCCCC)cc1 (repeat unit)
28 | 150.00 | *c1ccc(/C=N/c2cccc(/N=C/c3ccc(-c4ccc(*)s4)cc3)c2)cc1 (repeat unit)
29 | 321.00 | *c1ccc(Oc2ccc(C3(c4ccc(Oc5ccc(-c6nnc(*)c7c(-c8ccc(F)cc8)c(-c8ccc(F)cc8)c(-c8ccc(F)cc8)c(-c8ccc(F)cc8)c67)cc5)cc4)c4ccccc4-c4ccccc43)cc2)cc1 (repeat unit)
30 | 225.00 | *c1ccc(Oc2cccc(N3C(=O)c4ccc(Oc5ccc6cc(Oc7ccc8c(c7)C(=O)N(*)C8=O)ccc6c5)cc4C3=O)c2)cc1 (repeat unit)
31 | 140.00 | *c1ccc2c(c1)C(=O)N(c1ccc(-c3ccc(N4C(=O)c5ccc(C(*)(C(F)(F)F)C(F)(F)F)cc5C4=O)c(OCCCCCCOc4ccc(/C=C/c5ccc(F)cc5)cc4)c3)cc1OCCCCCCOc1ccc(/C=C/c3ccc(F)cc3)cc1)C2=O (repeat unit)
32 | 208.00 | *c1ccc(OCCCCCOc2ccc(N3C(=O)c4ccc(-c5cccc6c5C(=O)N(*)C6=O)cc4C3=O)cc2)cc1 (repeat unit)
33 | 220.00 | *Nc1ccc(NC(=O)c2ccc(NC(=O)CCCCCCCCC(=O)Nc3ccc(C(*)=O)cc3)cc2)cc1C(=O)OCCCCCCCCCCCCCCCC (repeat unit)
34 | -53.00 | *CC(*)c1ccc(CCCCCCCCC)cc1 (repeat unit)
35 | -65.00 | *CCCCCC(*)CCCCCCCCCC (repeat unit)
36 | 14.00 | *OC(F)(F)COC(=O)c1cc(OCCCCC)cc(C(=O)OCC(*)(F)F)c1 (repeat unit)
37 | 318.00 | *C(=O)c1ccc2c(c1)C(=O)N(c1c(C)cc(C(c3cc(C)c(N4C(=O)c5ccc(*)cc5C4=O)c(C)c3)c3cccc4ccccc34)cc1C)C2=O (repeat unit)
38 | 65.00 | *CCCCCCC(=O)NCc1ccc(CNC(=O)CCCCCCS*)cc1 (repeat unit)

Row | Structure (SMILES) | glass transition temperature [°C]
39 | *C(=O)c1ccc2c(c1)C(=O)N(c1cccc(P(=O)(c3ccc(C(F)(F)F)cc3)c3cccc(N4C(=O)c5ccc(*)cc5C4=O)c3)c1)C2=O (repeat unit) | 264.00
40 | *N=P(N=P(N=S(*)(=O)NC)(NC)NC)(NC)NC (repeat unit) | 22.00
41 | *c1cccc(P(=O)(c2ccccc2)c2cccc(-n3c(=O)c4cc5c(=O)n(*)c(=O)c5c(-c5ccc(C(F)(F)F)cc5)c4c3=O)c2)c1 (repeat unit) | 321.00
42 | *C(F)C(*)C(F)(F)F (repeat unit) | 87.00
43 | *Oc1ccc(C(C)(C)c2ccc(Oc3ccc(C(=O)c4ccc(P(=O)(c5ccccc5)c5ccc(C(=O)c6ccc(*)cc6)cc5)cc4)cc3)cc2)cc1 (repeat unit) | 195.00
44 | */C=C(/*)c1ccccc1C[Si](C)(C)C (repeat unit) | 170.00
